Source: patent publication US20230051589A1, “COMPOUNDS AND COMPOSITIONS FOR TREATING CONDITIONS ASSOCIATED WITH NLRP ACTIVITY” (Novartis AG, priority 2018, published 2023)
pIC50: −log10 of the molar value.

tested on: IL-1β production in PMA-differentiated THP-1 cells; assay: IL-1β production in PMA-differentiated THP-1 cells stimulated with gramicidin (hTHP-1 assay, 2% fetal bovine serum; Procedures 1-3); type: cell-based, human; settings: hTHP-1 assay containing 2% fetal bovine serum, Table B2, class symbols; read-out: IC50
Procedure, shortened: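 IL-1β released into supernatants was read by HTRF after 2 h gramicidin (5 μM) challenge. Before challenge, compounds (3-fold dilutions, top 100 μM, 0.37% DMSO) were given 1 h on THP-1 cells differentiated with PMA (20 ng/ml, 16-18 h) and held in 2% FBS medium.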

Structure (SMILES)	pIC50
CC(C)c1cc2c(cc1NC(=O)N=S(N)(=O)c1cnc(C(C)(C)O)s1)CCC2 (single isomer, unassigned) [Example 527, (S) or (R)-2-(2-hydroxypropan-2-yl)-N′-((6-isopropyl-2,3-dihydro-1H-inden-5-yl)carbamoyl) thiazole-5-sulfonimidamide]	5.30 to 6.00
CNCC1(c2ccc(S(N)(=O)=NC(=O)Nc3c4c(cc5c3CCC5)CCC4)c(F)c2)CC1 (single isomer, unassigned) [Example 528, (R) or (S)-2-fluoro-N′-((1,2,3,5,6,7-hexahydro-s-indacen-4-yl)carbamoyl)-4-(1-((methylamino)methyl)cyclopropyl) benzenesulfonimidamide]	6.00 to 6.70
CNCC1(c2ccc(S(N)(=O)=NC(=O)Nc3c4c(cc5c3CCC5)CCC4)c(F)c2)CC1 (single isomer, unassigned) [Example 529, (S) or (R)-2-fluoro-N′-((1,2,3,5,6,7-hexahydro-s-indacen-4-yl)carbamoyl)-4-(1-((methylamino)methyl)cyclopropyl) benzenesulfonimidamide]	4.52 to 5.30
CC(C)(O)c1csc([S@](N)(=O)=NC(=O)Nc2c3c(cc4c2C(=O)CC4)CCC3)c1 (single isomer, unassigned) [Example 530, (R) or (S)-4-(2-hydroxypropan-2-yl)-N′-((3-oxo-1,2,3,5,6,7-hexahydro-s-indacen-4-yl)carbamoyl) (thiophene-2-sulfonimidamide]	6.70 to 7.40
CC(C)(O)c1csc([S@@](N)(=O)=NC(=O)Nc2c3c(cc4c2C(=O)CC4)CCC3)c1 (single isomer, unassigned) [Example 531, (S) or (R)-4-(2-hydroxypropan-2-yl)-N′-((3-oxo-1,2,3,5,6,7-hexahydro-s-indacen-4-yl)carbamoyl) (thiophene-2 - sulfoniinidamide]	5.30 to 6.00
COCc1nc(C(C)(C)O)sc1S(N)(=O)=NC(=O)Nc1c2c(c(C#N)c3c1CCC3)CCC2 (single isomer, unassigned) [Example 532, (S) or (R)-N′-((8-cyano-1,2,3,5,6,7-hexahydro-s-indacen-4-yl)carbamoyl)-2-(2-hydroxypropan-2-yl)-4-(methoxymethyl) thiazole-5-suifoiiimidamide]	5.30 to 6.00
COCc1nc(C(C)(C)O)sc1S(N)(=O)=NC(=O)Nc1c2c(c(C#N)c3c1CCC3)CCC2 (single isomer, unassigned) [Example 533, (R) or (S)-N′-((8-cyano-1,2,3,5,6,7-hexahydro-s-indacen-4-yl)carbamoyl)-2-(2-hydroxypropan-2-yl)-4-(methoxymethyl) thiazole-5-sulfonimidamide]	6.00 to 6.70
CO[C@H]1COc2c(S(N)(=O)=NC(=O)Nc3c4c(cc5c3CC5)CCC4)cnn2C1 (single isomer, unassigned) [Example 534, (R,6R) or (S,6R)-6-methoxy-N′-((2,4,5,6-tetrahydro-1H-cyclobuta[f]inden-3-yl)carbamoyl)-6,7-dihydro-5H-pyrazolo [5,1-b][1,3]oxazine-3-sulfonimidamide]	7.40 to 8.10
CO[C@H]1COc2c(S(N)(=O)=NC(=O)Nc3c4c(cc5c3CC5)CCC4)cnn2C1 (single isomer, unassigned) [Example 535, (S,6R) or (R,6R)-6-methoxy-N′-((2,4,5,6-tetrahydro-1H-cyclobuta[f]inden-3-yl)caibamoyl)-6,7-dihydro-5H-pyrazolo [5,1-b][1,3]oxazine-3-sulfonimidamide]	5.30 to 6.00
CNCc1ccc(S(N)(=O)=NC(=O)Nc2c3c(cc4c2CC4)CCC3)cc1 (single isomer, unassigned) [Example 536, (S) or (R)-4-((methylamino)methyl)-N′-((2,4,5,6-tetrahydro-1H-cyclobuta[f]inden-3-yl)carbamoyl) benzenesulfonimidamide]	4.52 to 5.30
CNCc1ccc(S(N)(=O)=NC(=O)Nc2c3c(cc4c2CC4)CCC3)cc1 (single isomer, unassigned) [Example 537, (R) or (S)-4-((methylamino)methyl)-N′-((2,4,5,6-tetrahydro-1H-cyclobuta[f]inden-3-yl)carbamoyl) benzenesulfonimidamide]	5.30 to 6.00
